Experimental findings from patent US5622947A, “Benzoheterocyclic compounds and vasopressin antagonist and oxytocin antagonist compositions containing a benzoheterocyclic compound” (Otsuka Pharmaceutical Co., Ltd., priority 1992, dated 1997) are described below.

Assay [1] concerns the target T1, V1 Recepter (rat liver plasma membrane preparations) (Rattus norvegicus, UniProt P30560).
T1 construct: rat liver plasma membrane preparations; from tissue; host or cells: rat liver plasma membranes
Nature of the assay: V1 Recepter binding assay. The note with it: [3H]-Arg-vasopressin 2×10^-10 M, 37° C., 10 minutes, pH 8.0, rat liver plasma membrane. Here is the method: Test-1: V1 Recepter binding assay
By using rat liver plasma membrane preparations prepared according to Ichiraha's method [by Akira Ichihara: J. Bio. Chem., 258, 9283 (1983)], the plasma membrane (50,000 dpm, 2×10^-10 M) of [^3 H]-Arg-vasopressin and a test compound (60 μg, 10^-8 to 10^-4 M) were incubated at 37° C. for 10 minutes in 250 μl (in total volume) of 100 mM Tris-HCl buffer (pH=8.0), containing 5 mM MgCl2, 1 mM EDTA and 0.1% BSA. After the incubation, the mixture was filtered three times by using a glass filter (GF/F) so as to separate the membrane preparation by combining with vasopressin and then washed with the buffer (5 ml). This glass filter was taken out and mixed with a liquid of scintillation cocktail. The amount of [^3 H]-vasopressin combining with the membrane was measured by liquid scintillation counter and the rate of inhibitory effect of the test compound was calculated according to the following equation: […]
C1 : the amount of [^3 H]-vasopressin combining with the membrane in the presence of the test compound of a known amount,
(§1) C0 : the amount of [^3 H]-vasopressin combining with the membrane in the absence of the test compound,
B1 : the amount of [^3 H]-vasopressin combining with the membrane in the presence of the excess amount of vasopressin (10^-6 M).
The results are expressed as IC50 value, which is the concentration of the test compound required to achieve the inhitory effect in the rate of 50% and are shown in the following Table 156.

Assay [2] concerns the target T2, V2 Recepter (rat kidney plasma membrane preparations) (Rattus norvegicus, UniProt Q00788).
T2 construct: rat kidney plasma membrane preparations; from tissue; host or cells: rat kidney plasma membranes
Nature of the assay: V2 Recepter binding assay. The note with it: [3H]-Arg-vasopressin 4×10^-10 M, 4° C., pH 8.0, rat kidney plasma membrane. Here is the method: Test 2: V2 Recepter binding assay
By using rat kidney plasma membrane preparations prepared according to Hechter's method [by O. Hechter: J. Bio. Chem., 2.53, 3211 (1978)], the plasma membrane (100,000 dpm, 4×10^-10 M) of [^3 H]-Arg-vasopressin and a test compound (0.6 mg, 10^-10 to 10^-5 M) were incubated at 4° C. for 3 hours in 250 μl (in total volume) of 100 mM Tris-HCl buffer (pH=8.0), containing, 5 mM MgCl2, 1 mM EDTA and 0.1% BSA. After the incubation, the mixture, the mixture was filtered by using a glass filter (GF/F) so as to separate the membrane preparation combining with vasopressin, then washed twice with the buffer (5 ml). This glass filter was taken out and mixed with liquid scintillation cocktail. The amount of [^3 H]-vasopressin combining with the membrane was measured by a liquid scintillation counter and the rate of inhibitory effect of the test compound was calculated according to the following equation: Rate of the inhibitory
C1 : the amount of [^3 H]-vasopressin combining with the membrane in the presence of the testcompound of a known amount,
as §1
B1 : the amount of [^3 H]-vasopressin combining with the mebrane in the presence of the excess amount of vasopressin (10^-6 M).
The results are expressed as IC50 value, which is the concentration of the test compound required to achieve the inhibitory effect in the rate of 50%, and are shown in the following Table 157.

Assay [3] concerns the target T3, Oxytocin receptor (uterin muscle membrane preparation) (Rattus norvegicus, UniProt P70536).
T3 construct: was homogenized, which was used as a membrane; from tissue; host or cells: uterine muscle membranes from diethylstilbestrol-treated animals
T3 sequence (P70536 1-388): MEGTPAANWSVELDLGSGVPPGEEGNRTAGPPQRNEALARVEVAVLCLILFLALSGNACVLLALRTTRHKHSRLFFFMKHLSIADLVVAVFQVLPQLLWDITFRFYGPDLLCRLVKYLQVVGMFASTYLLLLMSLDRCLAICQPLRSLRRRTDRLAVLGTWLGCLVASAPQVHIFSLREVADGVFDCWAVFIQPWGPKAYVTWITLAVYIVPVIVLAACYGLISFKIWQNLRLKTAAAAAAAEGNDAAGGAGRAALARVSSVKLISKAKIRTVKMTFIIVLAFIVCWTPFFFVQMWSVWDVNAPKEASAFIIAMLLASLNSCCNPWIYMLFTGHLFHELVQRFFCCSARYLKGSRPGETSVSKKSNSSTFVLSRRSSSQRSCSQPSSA
Nature of the assay: Oxytocin receptor binding assay. As to conditions: [3H]-oxytocin 10^-9 M, 25°, one hour, pH 8.0, uterin muscle membrane, DES-treated. In a few lines: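 Rat uterine membranes (0.2 mg; DES-primed day before) incubated 1 h at 25° with [3H]-oxytocin (10^-9 M) and compound (10^-9 to 10^-5 M) in 100 mM Tris-HCl pH 8.0, 5 mM MgCl2, 1 mM EDTA, 0.1% BSA. Filter-bound radioactivity counted; nonspecific with 5×10^-6 M oxytocin; IC50 reported.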

Broadly, the IC50 is the concentration that gives 50% inhibition. Low readings indicate greater potency in that assay, high ones weaker potency in that assay.

T1 sequence (P30560 whole entry): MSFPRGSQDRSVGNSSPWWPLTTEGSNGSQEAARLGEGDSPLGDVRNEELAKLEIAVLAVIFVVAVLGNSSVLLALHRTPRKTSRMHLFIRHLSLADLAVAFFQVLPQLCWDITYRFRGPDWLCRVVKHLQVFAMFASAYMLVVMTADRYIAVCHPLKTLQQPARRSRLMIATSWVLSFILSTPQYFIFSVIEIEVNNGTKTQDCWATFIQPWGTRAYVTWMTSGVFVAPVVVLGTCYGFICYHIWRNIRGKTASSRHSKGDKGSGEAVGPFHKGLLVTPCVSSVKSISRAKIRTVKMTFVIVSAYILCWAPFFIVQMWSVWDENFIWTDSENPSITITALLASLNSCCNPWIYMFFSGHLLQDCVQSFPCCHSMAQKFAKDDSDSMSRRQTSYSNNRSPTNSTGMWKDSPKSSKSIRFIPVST
T2 sequence (Q00788 whole entry): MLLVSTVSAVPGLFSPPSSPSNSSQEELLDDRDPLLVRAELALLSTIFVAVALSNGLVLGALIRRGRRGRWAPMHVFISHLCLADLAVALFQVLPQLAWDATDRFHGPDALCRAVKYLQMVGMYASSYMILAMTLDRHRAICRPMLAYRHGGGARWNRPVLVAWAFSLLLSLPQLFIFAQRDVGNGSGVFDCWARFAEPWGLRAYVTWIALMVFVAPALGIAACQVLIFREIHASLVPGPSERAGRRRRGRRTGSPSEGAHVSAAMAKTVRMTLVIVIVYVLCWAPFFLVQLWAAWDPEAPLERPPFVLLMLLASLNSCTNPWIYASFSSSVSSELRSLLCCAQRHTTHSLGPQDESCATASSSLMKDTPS

Turning to `COc1cc(NC(=O)c2ccccc2Cl)ccc1C(=O)N1CCCC(CC(=O)N2CCN(CCO)CC2)c2cc(Cl)ccc21` (single isomer, unassigned) [Example 85, 5-[4-(2-Hydroxyethyl)-1-piperazinyl]-carbonylmethyl-7-chloro-1-[2-methoxy-4-(2-chlorobenzoylamino)benzoyl]-2,3,4,5-tetrahydro-1H-benzoazepine], the IC50 in assay [1] was determined as 16 nM; in assay [2] it was 8 nM; in assay [3], 94 nM.

As for `COc1cc(NC(=O)c2ccccc2Cl)ccc1C(=O)N1CCCC(CC(=O)N2CCN(CC#N)CC2)c2cc(Cl)ccc21` (centres unmarked) [Example 80, 5-(4-Cyanomethyl-1-piperazinyl)carbonylmethyl 7-chloro-1-[2-methoxy-4-(2-chlorobenzoylamino)benzoyl]-2,3,4,5-tetrahydro-1H-benzoazepine], the IC50 in assay [1] came to 16 nM; in assay [2], 9 nM; in assay [3], 84 nM.

Consider `C=CCN1CCN(C(=O)CC2CCCN(C(=O)c3ccc(NC(=O)c4ccccc4Cl)cc3OC)c3ccc(Cl)cc32)CC1` (centres unmarked) [Example 81, 5-(4-Allyl-1-piperazinyl)carbonylmethyl-7-chloro-1-[2-methoxy-4-(2-chlorobenzoylamino)benzoyl]-2,3,4,5-tetrahydro-1H-benzoazepine], for which the values for the IC50 in assay [1], in assay [2] and in assay [3] were 23 nM, 10 nM and 100 nM, respectively.

Take `COc1cc(NC(=O)c2ccccc2Cl)ccc1C(=O)N1CCCC(CC(=O)N2CCN(CC(O)CNC(C)C)CC2)c2cc(Cl)ccc21` (centres unmarked) [Example 87, 5-[4-(2-Hydroxy-3-isopropylaminopropyl)-1-piperazinyl]carbonylmethyl-7-chloro-1-[2-methoxy-4-(2-chlorobenzoylamino)benzoyl]-2,3,4,5-tetrahydro-1H-benzoazepine]: the results for the IC50 in assay [1], in assay [2] and in assay [3] were 7 nM, 2 nM and 70 nM, respectively.

As to `COc1cc(NC(=O)c2ccccc2Cl)ccc1C(=O)N1CCCC(CC(=O)N(C)CCO)c2cc(Cl)ccc21` (centres unmarked) [Example 88, 5-[N-Methyl-N-(2-hydroxyethyl)amino]-carbonylmethyl-7-chloro-1-[2-methoxy-4-(2-chlorobenzoylamino)benzoyl]-2,3,4,5-tetrahydo-1H-benzoazepine], the IC50 in assay [1] was determined as 10 nM; in assay [2], 2 nM; in assay [3], 58 nM.

On to `COc1cc(NC(=O)c2ccccc2Cl)ccc1C(=O)N1CCCC(CC(=O)N2CCCN(C)CC2)c2cc(Cl)ccc21` (centres unmarked) [Example 125, 5-(4-Methyl-1-homopiperazinyl)carbonylmethyl-7-chloro-1-[2-methoxy-4-(2-chlorobenzoylamino)benzoyl]-2,3,4,5-tetrahydro-1H-benzoazepine], for which the IC50 in assay [1] was 8 nM; in assay [2] it was 4 nM; in assay [3], 37 nM.

Regarding `COc1cc(NC(=O)c2ccccc2Cl)ccc1C(=O)N1CCCC(CC(=O)NCc2ccccn2)c2cc(Cl)ccc21` (centres unmarked) [Example 126, 5-(2-Pyridylmethyl)aminocarbonylmethyl-7-chlor-[2-methoxy-4-(2-chlorobenzoylamino)benzoyl]-2,3,4,5-tetrahydro-1H-benzoazepine], the IC50 was found to be 24 nM in assay [1], 5 nM in assay [2] and 73 nM in assay [3].

Regarding `COc1cc(NC(=O)c2ccccc2Cl)ccc1C(=O)N1CCCC(CC(=O)Nc2ccncc2)c2cc(Cl)ccc21` (centres unmarked) [Example 127, 5-(4-Pyridyl)aminocarbonylmethyl-7-chloro-1-[2-methoxy-4-(2-chlorobenzoylamino)benzoyl]-2,3,4,5-tetrahydro-1H-benzoazepine], the IC50 in assay [1] was 23 nM; in assay [2], 4 nM; in assay [3], 32 nM.

Turning to `CCN1CCN(C(=O)COC2CCCN(C(=O)c3ccc(N4CCc5ccccc5C4=O)cc3)c3ccc(Cl)cc32)CC1` (centres unmarked) [Example 128, 5-(4-Ethyl-1-piperazinyl)carbonylmethoxy-7-chloro-1-[4-(1-oxo-1,2,3,4-tetrahydroisoquinolin-2-yl)benzoyl]-2,3,4,5-tetrahydro-1H-benzoazepine], the IC50 in assay [1] amounted to 14 nM; in assay [2], 13 nM; in assay [3], 95 nM.

For the compound `COc1cc(NC(=O)c2ccccc2Cl)ccc1C(=O)N1CCCC(CC(=O)NCCc2ccccn2)c2cc(Cl)ccc21` (centres unmarked) [Example 130, 5-[2-(2-Pyridyl)ethyl]aminocarbonylmethyl-7-chloro-1-[2-methoxy-4-(2-chlorobenzoylamino)benzoyl]-2,3,4,5-tetrahydro-1H-benzoazepine], the half-inhibitory concentration (IC50) is 18 nM in assay [1], 4 nM in assay [2] and 115 nM in assay [3].

Consider `CCN(CC)CCOC1CCCN(C(=O)c2ccc(N3Cc4ccccc4C3=O)cc2)c2ccc(Cl)cc21` (centres unmarked) [Example 131, 5-(2-Diethylaminoethoxy)-7-chloro-1-[4-(1-oxoisoindolin-2-yl)benzoyl]-2,3,4,5-tetrahydro-1H-bezoazepine], for which the IC50 in assay [1] was 32 nM; in assay [2], 170 nM; in assay [3], 1790 nM.

For the compound `CC(C)NCCCCOc1ccccc1C(=O)Nc1ccc(C(=O)N2CCCC(CC(=O)N(C)C)c3cc(Cl)ccc32)cc1` (centres unmarked) [Example 162, 5-Dimethylaminocarbonylmethyl-7-chloro-1-{4-[2-(4-isopropylaminobutoxy)benzoylamino]-benzoyl}-2,3,4,5-tetrahydro-1H-benzoazepine], the half-maximal inhibitory concentration (IC50) in assay [1] was 9.2 nM; in assay [2], 130 nM.

On to `COc1cc(C(=O)N2CCCC(CC(=O)N(C)CCN(C)C)c3cc(Cl)ccc32)ccc1NC(=O)c1ccccc1Br` (centres unmarked) [Example 163, 5-[N-(2-Dimethylaminoethyl)-N-methylamino]-carbonylmethyl-7-chloro-1-[3-methoxy-4-(2-bromobenzoylamino)benzoyl]-2,3,4,5-tetrahydro-1H-benzoazepine], for which the concentration for half-maximal inhibition (IC50) in assay [1] came to 1.8 nM; in assay [2], 8 nM.

As for `CCN(CCN(C)C)C(=O)COC1CCCN(C(=O)c2ccc(NC(=O)c3ccccc3Br)c(OC)c2)c2ccc(Cl)cc21` (centres unmarked) [Example 165, 5-[N-(2-Dimethylaminoethyl)-N-ethylamino]-carbonylmethoxy-7-chloro-[3-methoxy-4-(2-bromobenzoylamino)benzoyl]-2,3,4,5-tetrahydro-1H-benzoazepine], the IC50 in assay [1] is 3.6 nM; in assay [2], 4.3 nM.

As for `COc1cc(C(=O)N2CCCC(OCC(=O)N3CCCN(C)CC3)c3cc(Cl)ccc32)ccc1NC(=O)c1ccccc1Br` (centres unmarked) [Example 166, 5-(4-Methyl-1-homopiperazinyl)carbonylmethoxy-7-chloro-1-[3-methoxy-4-(2-bromobenzoylamino)benzoyl]-2,3,4,5-tetrahydro-1H-benzoazepine], the results for the 50% inhibitory concentration (IC50) in assay [1] and in assay [2] were 4.8 nM and 10 nM, respectively.
